# Marks after values point to notes of the source that are not given here.
# Tests used:
# [1] = tested on: normal human prostate fibroblast (HPrF) cells
# Experimental: (§4) To determine the selectivity of LHRH-MTX, we performed a MTT experiment with normal human prostate fibroblast (HPrF) cells.
# (§5) HPrF cells were exposed to MTX or [DLys^6]-LHRH-MTX at 0.015-1000 μmol/L. Growth inhibition was determined by MTT assay.
# (§6) PC-3 cells and HPrF cells were maintained in T-media (Gibco Invitrogen, CA) supplemented with 10% fetal bovine serum (FBS) (Gibco Invitrogen, CA) and 1% penicillin/streptomycin (Cellgro Mediatech, nc., VA). […]
# (§7) The cytotoxic effect of MTX, [Dlys^6]-LHRH, and [Dlys^6]-LHRH-MTX was evaluated using the methylthiazol tetrazolium (MTT) assay (Sigma Aldrich, MO), which determines the number of viable cells from the formazan crystals produced by metabolic activity[26][33][34]. […] The absorption at 570 nm was recorded with an ELISA plate reader (Bio-Rad, Microplate Reader 550 and the growth inhibitory (GI) rate was calculated according to the following equation: GI(%) = 100 − [T − B)/(C − B) × 100].
# [2] = tested on: prostate cancer cell lines (PC-3, DU145 and LNCaP); assay: MTT cytotoxicity assay, prostate cancer cell lines as a group; assay type: cell-based, human; conditions: 24 h
# Experimental: (§1) The LNCaP cells were grown in RPMI 1640 medium(Gibco Invitrogen, CA) containing 10% FBS and 1% penicillin/streptomycin and the DU145 cells were grown in Eagle’s minimum essential medium (MEM) (Gibco Invitrogen, CA) with 2 mM L-glutamine and Earle’s BSS, 1.5 g/L sodium bicarbonate, 0.1mM non-essential amino acids, 1 mM sodium pyruvate, 10% FBS and 1% penicillin/streptomycin.
# (§2) The cytotoxic effect of MTX, [Dlys^6]-LHRH, and [Dlys^6]-LHRH-MTX was evaluated using the methylthiazol tetrazolium (MTT) assay (Sigma Aldrich, MO), which determines the number of viable cells from the formazan crystals produced by metabolic activity.
# (§3) In the equation, T represents the absorption value of the treatment group; C is the absorption value of the control (untreated) group; and B refers to the absorption value of the culture medium. IC50 values (μg/mL) were calculated with SPSS software. In a competition assay, Prostate cancer cells (5,000 per well) were separately incubated in 96-well plates in triplicate with [DLys^6]-LHRH–MTX alone and [DLys^6]-LHRH free peptide and [DLys^6]-LHRH–MTX together, and the cells were incubated for 24 hr. The plates were then analyzed with the MTT method.
# PC-3 tumor xenografts = assay: In vivo anti-tumor activity, PC-3 tumor xenografts; set-up: species or system athymic BALB/c nude mice; conditions: for effect on tumor volume / Mean tumor weight / Mean tumor volume, Final: end of study; for Inhibition ratio of tumor weight / Inhibition ratio of tumor volume: against saline; for Inhibition ratio of tumor weight / Inhibition ratio of tumor volume / Mean tumor volume, Initial / Mean tumor weight / Mean tumor volume, Final / Tumor volume doubling time: n = 10; for Inhibition ratio of tumor volume / Tumor volume doubling time: i.v. twice weekly for 4 weeks; for Mean tumor volume, Initial: baseline, nude mice with PC-3 xenografts; for Mean tumor volume, Initial / Mean tumor weight / Mean tumor volume, Final: means ± SD; for Mean tumor volume, Final: i.v. tail vein twice weekly for 4 weeks; for Tumor volume doubling time: saline control 6.13 days
# Experimental: Four week-old male athymic BALB/c nude mice were obtained from Sino-British SIPPR/BK Laboratory Animal Ltd (Shanghai, China). The animals were housed in sterile cages under laminar flow hoods in a temperature-controlled room with a 12h light/12h dark schedule and were fed autoclaved chow and water ad libitum.
# PC-3 cells were harvested from subconfluent cultures after a brief exposure to 0.25% trypsin and 0.2% EDTA. Trypsinization was stopped by adding medium containing 10% FBS. The cells were washed once in serum-free medium and resuspended in PBS. Only suspensions consisting of single cells with >90% viability were used for the injections. PC-3 cells (1 × 10^7) in 100 μL PBS suspended in Matrigel (0.1 mg, Collaborative Biomedical Products Becton Dickinson Labware, Bedford, MA) were injected subcutaneously into the interscapular area using a 27-gauge needle.
# On day 21, after PC-3 cell implantation, mice bearing tumors […] were randomized into the following four treatment groups (n = 10): saline controls, MTX treatment, [Dlys^6]-LHRH-MTX treatment and MTX plus [Dlys^6]-LHRH treatment. Treatments were made in 100 μL PBS and were given intravenously by tail vein injection twice weekly for 4 weeks. The vehicle-treated group received an equivalent amount of PBS. Tumor volumes were measured with calipers and the body weights of the mice were measured twice a week. Tumor volumes were calculated with the following formula: V(mm^3) = length × width^2/2, where width represents the shortest measurement in millimeters. The animals were euthanized 7 days after the last treatment. Body weights, tumor weights and organ weights were recorded.
# PC-3 cells [3] = assay: MTT cytotoxicity assay, PC-3 cells; assay type: cell-based; conditions: Homo sapiens, 24 h treatment, means ± SD, n = 3
# PC-3 cells [4] = assay: Apoptosis analysis, Annexin V-FITC/PI staining, flow cytometry; assay type: cell-based, human; conditions: 24 h; for late apoptotic/early necrotic (AV+/PI+) cells: quadrant B2; for early apoptotic (AV+/PI−) populations: quadrant B4
# Experimental: To quantitatively investigate apoptotic and early necrotic events in these treated cultures, the fluorescent probe Annexin V-FITC and PI were used, The presence of a apoptotic and early necrotic cells was then determined and quantified by flow cytometry analysis which clearly differentiated normal cells with low Annexin V-FITC and low PI staining, apoptotic cells with high Annexin V-FITC and low PI staining, necrotic cells with high Annexin V-FITC and high PI staining and cell debris with low Annexin VFITC and high PI staining.
# Figure 4 Quantitative apoptotic measurement in PC-3 cells after treatment with [DLys^6]-LHRH-MTX and MTX, the concentration-dependent effects on apoptosis following treatment with MTX and [DLys^6]-LHRH-MTX for 24 at doses of 0.98 μmol/L and 3.91 μmol/L were determined by flow cytometry analysis. Results were expressed as a dot plot of Annexin V -FITC vs. PI. […]
# To quantitatively evaluate the induction of apoptosis by flow cytometry, Annexin-V-FITC/PI staining was performed. Briefly, PC-3 cells were seeded in a 6-well culture plate at a density of 2 × 10^5 cells per well, and treated with various concentrations of MTX or [Dlys^6]-LHRH or [Dlys^6]-LHRH-MTX for 24 h. The cells were harvested and then stained with Annexin V-FITC/PI solution (1:1, v/v, […]) in the dark for 15 min at room temperature. After washing with PBS, the cell suspensions in buffer were gently vortexed, and analyzed within 1 h by flow cytometry (Beckton Dickinson, CA, […]).
# DU145 cells = assay: MTT cytotoxicity assay, DU145 cells; assay type: cell-based; conditions: Homo sapiens, DU-145, 24 h treatment, means ± SD, n = 3
# Experimental: as §1, §2, §3
# LNCaP cells = assay: MTT cytotoxicity assay, LNCaP cells; assay type: cell-based; conditions: Homo sapiens, 24 h treatment, means ± SD, n = 3
# Experimental: as §1, §2, §3
# [5] = tested on: normal human prostate fibroblast (HPrF) cells; assay: cells
# Experimental: as §4, §5, §6, §7
compound,measurement,setting,value
[DLys^6]-LHRH,cytotoxicity against HPrF cells,[1],no cytotoxicity
same,cytotoxicity against prostate cancer cell lines,[2],no cytotoxicity
same,"histology of tumor sections, hematoxylin/eosin","PC-3 tumor xenografts; PC-3 xenografts, Fig. 7",predominantly viable cells
same,effect on tumor volume,PC-3 tumor xenografts; PC-3 xenografts,did not affect the tumor volume
same,Inhibition ratio of tumor weight,PC-3 tumor xenografts,4.41%
same,Inhibition ratio of tumor volume,PC-3 tumor xenografts,2.88%
same,"Mean tumor volume, Initial",PC-3 tumor xenografts,62.49 ± 13.70 mm3
same,tumor burden,"PC-3 tumor xenografts; day 30, n = 10, Fig. 6",unchanged
same,Mean tumor weight,PC-3 tumor xenografts,1.95 ± 0.34 g
same,"Mean tumor volume, Final",PC-3 tumor xenografts,1784.58 ± 95.99 mm3
same,Tumor volume doubling time,PC-3 tumor xenografts,6.13 days
"CN(Cc1cnc2nc(N)nc(N)c2n1)c1ccc(C(=O)N[C@@H](CCC(=O)O)C(=O)O)cc1 [MTX, Methotrexate]",IC50,PC-3 cells [3],6.34 ± 1.01 µM
same,late apoptotic/early necrotic (AV+/PI+) cells,"PC-3 cells [4]; PC-3, 0.98 μmol/L",8.35%
same,early apoptotic (AV+/PI−) populations,"PC-3 cells [4]; PC-3, 0.98 μmol/L",15.38%
same,late apoptotic/early necrotic (AV+/PI+) cells,"PC-3 cells [4]; PC-3, 3.91 μmol/L",9.52%
same,early apoptotic (AV+/PI−) populations,"PC-3 cells [4]; PC-3, 3.91 μmol/L",30.88%
same,IC50,DU145 cells,8.03 ± 1.29 µM
same,effect on tumor volume,PC-3 tumor xenografts; PC-3 xenografts,significant anti-tumor effects
same,Inhibition ratio of tumor weight,PC-3 tumor xenografts,59.90%
same,Inhibition ratio of tumor volume,PC-3 tumor xenografts,61.88%
same,"Mean tumor volume, Initial",PC-3 tumor xenografts,63.38 ± 7.38 mm3
same,Mean tumor weight,PC-3 tumor xenografts,0.82 ± 0.12 ^a g
same,"Mean tumor volume, Final",PC-3 tumor xenografts,700.39 ± 36.48 ^a mm3
same,Tumor volume doubling time,PC-3 tumor xenografts,8.88 days
same,IC50,LNCaP cells,9.68 ± 1.24 µM
same,IC50,[5],42.3 ± 7.25 µM
